Results: PMC6651341, “EDB-FN Targeted Peptide–Drug Conjugates for Use against Prostate Cancer” (International Journal of Molecular Sciences, 2019)
Where a SMILES comes first, the peptide text is derived from it. Bridges are numbered along the chain shown (N, C = ends). [ ]: non-standard residue; d: D form. Ahx = NCCCCCC(=O)O

Assays:
LNCaP = test: MTS cell viability assay, LNCaP; assay type: cell-based, human; details: 5 µM, after 72 h, triplicate
Excerpt: (§1) Human epithelial prostate cell line (RWPE-1, ATCC No. CRL-11610), human prostate cancer cell line (Human prostate carcinoma DU-145, ATCC No. HTB-81), human adenocarcinoma PC3, ATCC No. CRL-1435), androgen-sensitive human prostate adenocarcinoma cells (LNCaP, ATCC No. CRL-1740), and castration-resistant LNCaP-derived C4-2 (ATCC No. CRL-1595) were purchased from American Type Culture Collection (ATCC), Manassas, VA, USA. All the media, serum, and antibiotics were bought from American Type Culture Collection (ATCC) (Manassas, VA, USA) and Sigma life-science (St. Louis, MO, USA). Keratinocytes SFM (1×) with EGF + BPE was bought from Gibco life technologies (Thermo Fisher Scientific), Gaithersburg, MD, USA. CellTiter 96 was bought from Promega, Madison, WI, USA. […]
(§2) Cell-proliferation assay using MTS reagent was conducted against five cell lines (RWPE-1, PC3, DU-145, LNCaP, and, C4-2). […] The absorbance was obtained at 490 nm using SpectraMax M2 microplate reader to detect the formazan product. […] The percentage of cell viability was calculated by [(OD value of cells treated with the test mixture of compounds) − (OD value of culture medium)] / [(OD value of control cells) − (OD value of culture medium)] × 100%. […] Cell viability was determined by measuring the absorbance at 490 nm using SpectraMax M2 microplate spectrophotometer, as mentioned above.

C4-2 = test: MTS cell viability assay, C4-2 without TGF-β; assay type: cell-based, human; details: 5 µM, after 72 h, triplicate
Excerpt: (§3) Human epithelial prostate cell line (RWPE-1, ATCC No. CRL-11610), human prostate cancer cell line (Human prostate carcinoma DU-145, ATCC No. HTB-81), human adenocarcinoma PC3, ATCC No. CRL-1435), androgen-sensitive human prostate adenocarcinoma cells (LNCaP, ATCC No. CRL-1740), and castration-resistant LNCaP-derived C4-2 (ATCC No. CRL-1595) were purchased from American Type Culture Collection (ATCC), Manassas, VA, USA. All the media, serum, and antibiotics were bought from American Type Culture Collection (ATCC) (Manassas, VA, USA) and Sigma life-science (St. Louis, MO, USA). Keratinocytes SFM (1×) with EGF + BPE was bought from Gibco life technologies (Thermo Fisher Scientific), Gaithersburg, MD, USA. CellTiter 96 was bought from Promega, Madison, WI, USA. Dithiothreitol (DTT) was bought from Thermo Fisher scientific, Carlsbad, CA, USA, and TGF-β was bought from Abcam, Boston, MA, USA.
(§4) Cell-proliferation assay using MTS reagent was conducted against five cell lines (RWPE-1, PC3, DU-145, LNCaP, and, C4-2). Cells were seeded into 96-well plates (5 × 10^3 cells for all the cells) and incubated with 100 µL of complete medium (RPMI-1640 for RWPE-1, DU-145, LNCaP, and C4-2; DMEM for PC3) overnight at 37 °C with 5% CO2. Various concentrations (0, 0.06, 0.6, 6, 60, 600 μM) of the peptide solution (20 μL) were added to cells to yield the final concentrations of peptide (0, 0.01, 0.1, 1, 10, 100 μM). The cells were kept in an incubator (37 °C, 5% CO2) for 24, 48, or 72 h accordingly for different treatment time responses. […] The absorbance was obtained at 490 nm using SpectraMax M2 microplate reader to detect the formazan product. […] The percentage of cell viability was calculated by [(OD value of cells treated with the test mixture of compounds) − (OD value of culture medium)] / [(OD value of control cells) − (OD value of culture medium)] × 100%. […] Cell viability was determined by measuring the absorbance at 490 nm using SpectraMax M2 microplate spectrophotometer, as mentioned above.

[1] = system: RWPE-1 normal human prostate epithelial cells; test: MTS cell viability assay, RWPE-1; assay type: cell-based; details: 5 µM, after 72 h, triplicate
Excerpt: as §1, §2

PC3 = test: MTS cell viability assay, PC3; assay type: cell-based, human; details: 5 µM, after 72 h, MTS, triplicate
Excerpt: as §3, §4

DU-145 = test: MTS cell viability assay, DU-145; assay type: cell-based, human; details: 5 µM, after 72 h, triplicate
Excerpt: as §1, §2

EDB-FN = test: Confocal microscopy of FAM-tagged peptides, binding to EDB-FN; assay type: cell-based, human; details: C4-2 cells, 5 μg FAM-peptide, 12 h, confocal 60×
Experimental: Prostate cancer cell line (C4-2) was grown in RPMI medium containing 10% fetal bovine serum and 1% penicillin/streptomycin at the 37 °C in a 5% CO2 incubator. The culture medium was changed every 2–3 days until confluency was reached to 80%. Each cells group was treated with 5 μg of fluorescence-tagged peptides (17 and 18) for 12 h. A set of control groups was also prepared, which was not treated with peptides. Then all cells were fixed with 4% paraformaldehyde for 10 min and washed for 10 min (3 times with PBS). The cells were blocked in 1% FBS/PBS for 10 min and washed for 10 min (3 times with PBS). To target EDB-FN on the cell surface, the cells were incubated with a mouse monoclonal anti-fibronectin antibody (Abcam, Cambridge, MA, USA) (1:1000 dilution using 1% FBS/PBS) overnight at the 4 °C. The cells were washed for 10 min (3 times with PBS), and a Texas red-conjugated anti-mouse secondary antibody was used in 1% FBS/PBS (5:1000 dilution) at the room temperature for 1 h. Then cells were washed for 10 min (3 times with PBS), and at the end, nuclei were stained using DAPI and covered with coverslips. Representative images of cells were captured using a standard confocal microscope (Nikon Eclipse Ti-E, Nikon Instruments Inc., Melville, NY, USA) at 60× magnification, and the images were processed for binary contrast quantification.

Molecule | cytotoxicity (LNCaP) | cytotoxicity (C4-2) | cytotoxicity [1] | cytotoxicity (PC3) | cytotoxicity (DU-145) | increase in the peptide-stained area compared to peptide 17 (binary contrast quantification) (EDB-FN) [%]
CC(C)C[C@H](NC(=O)[C@H](Cc1ccccc1)NC(=O)CNC(=O)[C@@H](N)CS)C(=O)NCC(=O)NCCCCCC(=O)N[C@H]1CCCCNC(=O)CC[C@@H](C(N)=O)NC(=O)[C@H](CC(=O)O)NC(=O)[C@H](C)NC(=O)[C@H](CO)NC(=O)[C@H]([C@@H](C)O)NC(=O)[C@H](CCCNC(=N)N)NC(=O)[C@H](C(C)C)NC(=O)[C@H]([C@@H](C)O)NC1=O [compound 9] (H-CGFLG[Ahx]KTVRTSADE-NH2; lactam 7-15) | did not show any significant cytotoxicity | did not show any significant cytotoxicity | did not show any significant cytotoxicity | did not show any significant cytotoxicity | did not show any significant cytotoxicity | –
FAM-GFLG-C6-[KTVRTSADE] (sidechain bridge or staple) [compound 18] | – | – | – | – | – | 48
